# Laboratory results from publication PMC8287028 (Frontiers in Veterinary Science, 2021).
# Where “and” joins values, the source holds several entries; their conditions need not be identical. Identical values can stand only once.
# Columns and labels:
# [1] = Pharmacokinetics after oral apixaban capsules, plasma concentrations by LC/MS; details: for AUC: AUC (area-under-the-curve); for Cmax: CMax (peak concentration); for bioavailability: F% (fraction of oral dose absorbed, bioavailability); for half-life: K10 T½ (apparent elimination half-life); for Vd/F: V/F (volume of distribution per fraction absorbed)
# Source text: Additionally, drug metabolism might be different in beagles compared with mixed-breed dogs ([33], [34]). […] The study was approved by the Institutional Animal Care and Use Committee (IACUC) at Cornell University College of Veterinary Medicine (Protocol #2019-0099). All dogs were housed at Cornell University and cared for by licensed veterinarians and technicians according to established protocols. All dogs were permanently adopted into private homes after study completion.
# To achieve uniform dosing, custom IV (2.5 mg/ml) and oral capsule formulations were created. The protocol for generation of the IV formulation was as previously published ([25]), and all procedures were performed in a laminar flow hood under strict aseptic conditions. […] After vortexing, the formulation was aseptically filtered (Corning 0.22 μm cellulose acetate filter, Millipore-Sigma) then drawn into 10 ml syringes (BD, Franklin Lakes, NJ). The IV formulation was prepared 1 h before administration and stored in the dark at 20-25°C. […] All injection durations were identical. Separately, all dogs received bodyweight appropriate capsule size to provide ~0.2 mg/kg PO once. Capsules were administered without food and witnessed to be ingested. A minimum washout period of 2 weeks elapsed between initial PO administration and subsequent IV administration. The maximum duration of capsule storage prior to administration was 76 days.
# On the days of drug administration, 5 Fr × 25 cm trilumen wire-guided catheters (Mila International, Erlanger, KY) were aseptically placed in external jugular veins by modified-Seldinger technique to facilitate atraumatic, repeat blood sample collection. Dogs were sedated with IV butorphanol 0.2 mg/kg and dexmedetomidine 5 μg/kg (Zoetis, Parsippany, NJ) to facilitate catheter placement. Jugular catheters were secured using 3-0 nylon sutures, protected with sterile bandages, and flushed with 0.9% saline (no heparin was used). Dogs were allowed to recover fully from sedation prior to drug administration. […] Catheters were flushed with 0.9% saline, without heparin. Samples were also drawn into K2-EDTA and no-additive tubes at baseline and 24 h post-administration for complete blood counts and serum biochemistry profiles. Dogs were closely monitored for adverse reactions throughout the sample collection period. […] After each sample collection, one citrate anticoagulated whole blood sample was analyzed using thromboelastography (TEG), while the second citrate sample was centrifuged (1,370 g, 10 min, 20°C), the plasma separated, split into two aliquots and then frozen at −80°C pending batch analyses.
# In brief, proteins in the sample were initially precipitated by combining 100 μl of plasma sample with 200 μl of 0.1 M ZnSO4 solution and 700 μl of isotope standard stock solution, mixing in a vortex device for 5 s followed by centrifugation (14,000 g, 5 min, RT). The supernatant was added to glass autosampler vials and an aliquot injected into the liquid chromatography 2D UPLC system (Waters Acquity UPLC H-class with 2D Technology System). Sample extraction was performed using a 2.1 × 30 mm reverse phase cartridge (column 1, Waters, XBridge C8, 10 μm) followed by an analytical separation on a 2.1 × 50 mm reverse phase column (column 2, Waters, Acquity UPLC BEH C18, 1.7 μm) and an elution with a linear gradient using water containing 0.1% formic acid and 2 mmol/L ammonium acetate and methanol containing 0.1% formic acid and 2 mmol/L ammonium acetate. […] A 10-point calibration curve was generated with concentrations ranging from 1 to 1,000 ng/ml, with three quality control samples at each of three concentrations (low, 2.5 ng/ml; medium, 50 ng/ml; high, 500 ng/ml).
# Where C is the plasma drug concentration, V is the volume of distribution, D is the dose, K10 is the first order elimination rate constant, and T is time. Secondary parameters included area-under-the curve (AUC), systemic clearance (CL), and half-life.
# prothrombin time = details: in vitro, dog plasma fortified with apixaban; cited from earlier work
# dog factor Xa = details: in vitro, isolated factor Xa, cited from earlier work
# [2] = cited from earlier work
# [3] = both, mixed-breed, dog, plasma, po, 0.2 mg/kg, dogs, mean dose 0.2 mg/kg, geometric mean, n = 5
# [4] = both, mixed-breed, dog, plasma, po, 0.2 mg/kg, dogs, mean dose 0.2 mg/kg, mean, n = 5
# [5] = dogs, PO, mean dose 0.2 mg/kg, model fit, individual dogs (Dog 1-5), 0.2 mg/kg
# [6] = dogs, PO, mean dose 0.2 mg/kg, geometric mean, n = 5
# [7] = dogs, PO, mean dose 0.2 mg/kg, individual dogs (Dog 1-5), 0.2 mg/kg
# [8] = dogs, PO, mean dose 0.2 mg/kg, mean, n = 5
smiles,measurement,setting,value
COc1ccc(-n2nc(C(N)=O)c3c2C(=O)N(c2ccc(N4CCCCC4=O)cc2)CC3)cc1 [apixaban],mean maximum observed plasma concentration (CMax),"[1]; both, mixed-breed, dog, in vivo, po",176 ± 126 ng/mL
same,CL/F,"[1]; both, mixed-breed, dog, in vivo, po, 0.2 mg/kg",1.88 mL/min/kg
same,AUC,[1]; [3],1770 ng·h/mL
same,AUC,[1]; [4],1950 ng·h/mL
same,CL/F,"[1]; both, mixed-breed, dog, plasma, po, 0.2 mg/kg, CL/F (systemic clearance per fraction absorbed), dogs, mean dose 0.2 mg/kg, mean, n = 5",2.08 mL/min/kg
same,Cmax,"[1]; both, mixed-breed, dog, plasma, po, 0.2 mg/kg, dogs, mean dose 0.2 mg/kg, model fit, geometric mean, n = 5",196 ng/mL
same,Cmax,"[1]; both, mixed-breed, dog, plasma, po, 0.2 mg/kg, dogs, mean dose 0.2 mg/kg, model fit, mean, n = 5",223 ng/mL
same,bioavailability,"[1]; both, mixed-breed, dog, plasma, po, 0.2 mg/kg, dogs, PO 0.2 mg/kg vs IV 0.18 mg/kg, geometric mean, n = 5",24.1%
same,bioavailability,"[1]; both, mixed-breed, dog, plasma, po, 0.2 mg/kg, dogs, PO 0.2 mg/kg vs IV 0.18 mg/kg, mean, n = 5",28.4%
same,half-life,[1]; [3],3 h
same,half-life,"[1]; both, mixed-breed, dog, plasma, po, 0.2 mg/kg, dogs, mean dose 0.2 mg/kg, individual dogs (Dog 1-5)",3.8 h
same,half-life,[1]; [4],3.1 h
same,TMax,"[1]; both, mixed-breed, dog, plasma, po, 0.2 mg/kg, TMax, dogs, mean dose 0.2 mg/kg, model fit, geometric mean, n = 5",5 h
same,TMax,"[1]; both, mixed-breed, dog, plasma, po, 0.2 mg/kg, TMax, dogs, mean dose 0.2 mg/kg, model fit, individual dogs (Dog 1-5)",3.5 h
same,Vd/F,[1]; [3],0.492 L/kg
same,Vd/F,[1]; [4],0.534 L/kg
same,"F% (fraction of oral dose absorbed, bioavailability)","[1]; dogs, PO 0.2 mg/kg vs IV 0.18 mg/kg, individual dogs (Dog 1-5)",35.0% and 51.5% and 15.0% and 10.0% and 30.4%
same,residual plasma concentrations,"[1]; dogs, PO 0.2 mg/kg, quantifiable at the 24-h time point",declined to below the level of quantitation by the 30-h time point
same,AUC (area-under-the-curve),"[1]; dogs, PO capsule, mean dose 0.2 mg/kg, fasted, individual dogs (Dog 1-5), 0.2 mg/kg","2,082.4 h*ng/ml and 2,396.3 h*ng/ml and 1,335.5 h*ng/ml and 863.4 h*ng/ml and 3,051.2 h*ng/ml"
same,CMax (peak concentration),[1]; [5],236.2 ng/mL and 294.3 ng/mL and 165.1 ng/mL and 71.4 ng/mL and 348.5 ng/mL
same,TMax,[1]; [5],4.4 h and 4.9 h and 6.3 h and 6.1 h
same,TMax (time to CMax),"[1]; dogs, PO, mean dose 0.2 mg/kg, model fit, mean, n = 5, 0.2 mg/kg",5 h
same,K01 (first order absorption rate),[1]; [6],0.4 h⁻¹
same,K10 (first order elimination rate),[1]; [6],0.2 h⁻¹
same,TLag (lag time for capsule dissolution and stomach emptying),[1]; [6],1.8 h
same,CL/F (systemic clearance per fraction absorbed),[1]; [7],1.64 mL/min/kg and 1.33 mL/min/kg and 2.597 mL/min/kg and 3.668 mL/min/kg and 1.15 mL/min/kg
same,K01 (first order absorption rate),[1]; [7],0.7 h⁻¹ and 0.5 h⁻¹ and 0.3 h⁻¹ and 0.2 h⁻¹ and 0.6 h⁻¹
same,K10 (first order elimination rate),[1]; [7],0.2 1/h (4×) and 0.3 1/h
same,TLag (lag time for capsule dissolution and stomach emptying),[1]; [7],0.9 h and 1.6 h and 1.9 h and 1.8 h and 3.4 h
same,V/F (volume of distribution per fraction absorbed),[1]; [7],0.5407 L/kg and 0.3267 L/kg and 0.4659 L/kg and 0.9747 L/kg and 0.3612 L/kg
same,K01 (first order absorption rate),[1]; [8],0.5 h⁻¹
same,K10 (first order elimination rate),[1]; [8],0.2 h⁻¹
same,TLag (lag time for capsule dissolution and stomach emptying),"[1]; dogs, PO, mean dose 0.2 mg/kg, mean, n = 5, 0.2 mg/kg",2 h and 2.0 h
same,time of mean maximum observed plasma concentration,"[1]; dogs, single oral dose 0.20 mg/kg, post-dosing, observed",6 h
same,concentration required to double the prothrombin time,prothrombin time,"3,079 ng/ml and 6.7 μM"
same,inhibitor constant (Ki),dog factor Xa,0.78 ng/mL
same,Ki,dog factor Xa; read-out: inhibitor constant (Ki),1.7 nM
same,protein-bound,[2],over 90%
same,time to maximal plasma concentrations,"[2]; dogs, 0.5 mg/kg IV or PO",2.8 h
same,oral bioavailability,"[2]; dogs, 0.5 mg/kg, liquid formulation with methylcellulose and polysorbate 80",80%
same,standard PT,"[2]; dogs, Thromboplastin C-Plus reagent",not the standard PT
same,factor Xa-dependent clotting time test (HEPTEST),[2]; dogs,prolonged
